In article PMC4738305, “Metabolism and Disposition of Aditoprim in Swine, Broilers, Carp and Rats” (Scientific Reports, 2016):

Experiments:
[1] = Tissue distribution and elimination of total radioactivity (total residues) after oral ^3H-ADP for 7 d; format: in vivo; settings: rats, 5 mg/kg b.w. 7 days
Method: (§1) (0.1 Ci/g) through oral gavage for 7 consecutive days. All the animals were housed on the basis of their group in the cages or aquaria throughout the whole study period. A group of animals was slaughtered through exsanguination under diethyl ether inhalation of anesthesia in the period of 6 h, 1, 3, 7, 14, and 21 d after the administration. The blood samples were immediately collected into the heparinized tubes and was centrifuged at 1920 × g at 4 °C for 10 min to obtain the plasma. The tissues from the heart, liver, spleen, lung, kidney, craw (broilers), stomach, intestine, fat, skin, muscle, thymus, pancreas, bile, bladder, hair (scale for carp), genital gland, adrenal glands, swim bladder (carp), brain, lymph, and bursa (broilers) were carefully excised and collected. The tissues were thoroughly rinsed with the deionized water to remove the residuary blood, blotted to dryness, and finally to perform the homogenization. In order to avoid cross-contamination the dissecting instruments were washed during the tissue procurements. The blank tissues were collected in order to provide control matrices. The total radioactivity levels in each sample were determined through LSC. The samples extracted from the plasma, bile, and tissues of the liver, kidney, muscle, and fat/skin were analyzed through LC/MS-IT-TOF and v. ARC radiometric detection for metabolite profiling.
(§2) Measurements of the total radioactivity in each sample were conducted by Packard Tri-Carb 2900 TR liquid scintillation counter (PerkinElmer Life and Analytical Sciences). The detection time was 10 min for two cycles. The scintillation counter data were automatically corrected for counting efficiency by instrument-stored quench curve which was drawn with a series of sealed quenched […] standards. The actual radioactivity of each sample was calculated by subtracting the background value form the mean radioactivity in two blank samples. All the samples were analyzed in duplicate if the sample size allowed this. If the results were differed by more than 10% from the mean value, the samples were reanalyzed. The samples with LSC counts less than 2-fold of the level of the running background were considered to contain insufficient radioactivity for reliable quantification.
(§3) Aliquots of liquid samples (urine, plasma, bile and raised water, 200 μL) were mixed with 10 mL of Ultima Gold^TM scintillation fluid for the direct analysis by LSC. Aliquots of solid samples (feces and tissues, 200 mg) were digested overnight with 2 mL tissue solubilizer at 50 °C in a shaking water bath, followed by adding 200 μL of 0.1 mol/L EDTA-Na and 200 μL of 30% H2O2, and was bathed at 50 °C for 2 h to bleach. The obtained transparent liquid were mixed with 10 mL of scintillation fluid and finally were counted by LSC. The digestion efficiency was determined by using the blank samples spiked with ^3 H standard for digestion, and the measured radioactivity content in the digested samples were adjusted by using the digestion efficiency values.
(§4) The concentrations of ADP and/or its metabolites were analyzed by using the following equation: C = L/(2.22 × 10^9 × RM), where C is the concentration of ADP or/and its metabolites (mg/kg), L is the LSC count (dpm), R is the specific activity of the administered dose (0.1 Ci/g), and M is the weight or volume of samples (kg or L). The results are expressed as mean ± SD. The elimination kinetics of terminal phase for ADP and its metabolites were conducted by using the WinNonlin linear regression program (Pharsight corporation, Statistical consultants, Inc., Kentucky, USA).

[2] = as above; format: in vivo, broilers; set-up: Elimination kinetics Ke: unit not given here; settings: for Elimination kinetics Ke / Elimination kinetics t1/2 / Concentrations of total residues: broilers; for Elimination kinetics Ke / Elimination kinetics t1/2: 5 mg/kg b.w. 7 days
Method: as §1, §2, §3, §4

SMILES: [3H]c1c(Cc2cnc(N)nc2N)cc(OC)c(N(C)C)c1OC [^3H-ADP]
- Elimination kinetics Ke ([1]; Adrenal): 0.28
- Elimination kinetics Ke ([1]; Bladder): 0.56
- Elimination kinetics t1/2 ([1]; Bladder): 29.5 h
- Elimination kinetics Ke ([1]; Blood): 0.22
- Elimination kinetics t1/2 ([1]; Blood): 75.4 h
- Elimination kinetics Ke ([1]; Brain): 0.26
- Elimination kinetics t1/2 ([1]; Brain): 64.6 h
- Elimination kinetics Ke ([1]; Fat): 0.26
- Elimination kinetics Ke ([1]; Gonades): 0.40
- Elimination kinetics t1/2 ([1]; Gonades): 41.5 h
- Elimination kinetics Ke ([1]; Heart): 0.24
- Elimination kinetics t1/2 ([1]; Heart): 70.8 h
- Elimination kinetics Ke ([1]; Kidney): 0.21
- Elimination kinetics Ke ([1]; Large Intestine): 0.40
- Elimination kinetics t1/2 ([1]; Large Intestine): 41.3 h
- Elimination kinetics Ke ([1]; Liver): 0.18
- Elimination kinetics Ke ([1]; Lung): 0.24
- Elimination kinetics t1/2 ([1]; Lung): 69.1 h
- Elimination kinetics Ke ([1]; Muscle): 0.25
- Elimination kinetics Ke ([1]; Pancreas): 0.26
- Elimination kinetics t1/2 ([1]; Pancreas): 63.6 h
- Elimination kinetics Ke ([1]; Skin): 0.19
- Elimination kinetics t1/2 ([1]; Skin): 86.2 h
- Elimination kinetics Ke ([1]; Small Intestine): 0.36
- Elimination kinetics t1/2 ([1]; Small Intestine): 46.3 h
- Elimination kinetics Ke ([1]; Spleen): 0.24
- Elimination kinetics t1/2 ([1]; Spleen): 69.4 h
- Elimination kinetics Ke ([1]; Stomach): 0.27
- Elimination kinetics t1/2 ([1]; Stomach): 62.6 h
- Elimination kinetics Ke ([1]; Thymus): 0.35
- Elimination kinetics t1/2 ([1]; Thymus): 48.2 h
- concentration of total radioactivity ([2]; broilers bile, within 6 h after oral ^3H-ADP for 7 d): 25.2 ± 8.5 mg/kg
- Elimination kinetics Ke ([2]; Bile): 0.71
- Elimination kinetics t1/2 ([2]; Bile): 25.9 h
- Elimination kinetics Ke ([2]; Blood): 0.31
- Elimination kinetics t1/2 ([2]; Blood): 54 h
- Elimination kinetics Ke ([2]; Brain): 0.47
- Elimination kinetics t1/2 ([2]; Brain): 35.5 h
- Elimination kinetics Ke ([2]; Bursa of Fabricius): 0.33
- Elimination kinetics t1/2 ([2]; Bursa of Fabricius): 50.6 h
- Elimination kinetics Ke ([2]; Fat): 0.42
- Concentrations of total residues ([2]; Fat, time 0.25, 5 mg/kg b.w. 7 days): 0.78 ± 0.32 mg/kg
- Concentrations of total residues ([2]; Fat, time 1, 5 mg/kg b.w. 7 days): 0.43 ± 0.05 mg/kg
- Concentrations of total residues ([2]; Fat, time 3, 5 mg/kg b.w. 7 days): 0.24 ± 0.02 mg/kg
- Concentrations of total residues ([2]; Fat, time 7, 5 mg/kg b.w. 7 days): 0.04 ± 0.01 mg/kg
- Elimination kinetics Ke ([2]; Feathers): 0.28
- Elimination kinetics t1/2 ([2]; Feathers): 60 h
- Concentrations of total residues ([2]; Feathers, time 0.25, 5 mg/kg b.w. 7 days): 0.85 ± 0.17 mg/kg
- Concentrations of total residues ([2]; Feathers, time 1, 5 mg/kg b.w. 7 days): 0.53 ± 0.12 mg/kg
- Concentrations of total residues ([2]; Feathers, time 3, 5 mg/kg b.w. 7 days): 0.27 ± 0.03 mg/kg
- Concentrations of total residues ([2]; Feathers, time 7, 5 mg/kg b.w. 7 days): 0.10 ± 0.01 mg/kg
- Elimination kinetics Ke ([2]; Glandular stomach): 0.59
- Elimination kinetics t1/2 ([2]; Glandular stomach): 28.1 h
- Concentrations of total residues ([2]; Glandular stomach, time 1, 5 mg/kg b.w. 7 days): 1.54 ± 0.36 mg/kg
- Concentrations of total residues ([2]; Glandular stomach, time 3, 5 mg/kg b.w. 7 days): 0.27 ± 0.05 mg/kg
- Concentrations of total residues ([2]; Glandular stomach, time 7, 5 mg/kg b.w. 7 days): 0.04 ± 0.00 mg/kg
- Elimination kinetics Ke ([2]; Heart): 0.29
- Elimination kinetics t1/2 ([2]; Heart): 57.8 h
- Elimination kinetics Ke ([2]; Kidney): 0.30
- Elimination kinetics Ke ([2]; Large Intestine): 0.90
- Elimination kinetics t1/2 ([2]; Large Intestine): 18.5 h
- Concentrations of total residues ([2]; Large Intestine, time 0.25, 5 mg/kg b.w. 7 days): 6.29 ± 1.45 mg/kg
- Concentrations of total residues ([2]; Large Intestine, time 1, 5 mg/kg b.w. 7 days): 1.25 ± 0.23 mg/kg
- Concentrations of total residues ([2]; Large Intestine, time 3, 5 mg/kg b.w. 7 days): 0.12 ± 0.03 mg/kg
- Concentrations of total residues ([2]; Large Intestine, time 7, 5 mg/kg b.w. 7 days): 0.01 ± 0.00 mg/kg
- Elimination kinetics Ke ([2]; Liver): 0.21
- Elimination kinetics Ke ([2]; Lung): 0.61
- Elimination kinetics t1/2 ([2]; Lung): 27.4 h
- Elimination kinetics Ke ([2]; Maw): 0.53
- Elimination kinetics t1/2 ([2]; Maw): 31.4 h
- Elimination kinetics Ke ([2]; Muscle): 0.23
- Concentrations of total residues ([2]; Muscle, time 0.25, 5 mg/kg b.w. 7 days): 1.10 ± 0.44 mg/kg
- Concentrations of total residues ([2]; Muscle, time 1, 5 mg/kg b.w. 7 days): 0.23 ± 0.10 mg/kg
- Elimination kinetics Ke ([2]; Muscular stomach): 0.46
- Elimination kinetics t1/2 ([2]; Muscular stomach): 36.5 h
- Concentrations of total residues ([2]; Muscular stomach, time 0.25, 5 mg/kg b.w. 7 days): 1.92 ± 0.57 mg/kg
- Concentrations of total residues ([2]; Muscular stomach, time 1, 5 mg/kg b.w. 7 days): 0.69 ± 0.10 mg/kg
- Concentrations of total residues ([2]; Muscular stomach, time 3, 5 mg/kg b.w. 7 days): 0.25 ± 0.03 mg/kg
- Concentrations of total residues ([2]; Muscular stomach, time 7, 5 mg/kg b.w. 7 days): 0.04 ± 0.01 mg/kg
- Elimination kinetics Ke ([2]; Pancreas): 0.57
- Elimination kinetics t1/2 ([2]; Pancreas): 29 h
- Elimination kinetics Ke ([2]; Skin): 0.43
- Elimination kinetics t1/2 ([2]; Skin): 38.6 h
- Concentrations of total residues ([2]; Skin, time 0.25, 5 mg/kg b.w. 7 days): 1.78 ± 0.42 mg/kg
- Concentrations of total residues ([2]; Skin, time 1, 5 mg/kg b.w. 7 days): 0.74 ± 0.11 mg/kg
- Concentrations of total residues ([2]; Skin, time 3, 5 mg/kg b.w. 7 days): 0.25 ± 0.02 mg/kg
- Concentrations of total residues ([2]; Skin, time 7, 5 mg/kg b.w. 7 days): 0.05 ± 0.01 mg/kg
- Elimination kinetics Ke ([2]; Small Intestine): 0.75
- Elimination kinetics t1/2 ([2]; Small Intestine): 22.1 h
- Concentrations of total residues ([2]; Small Intestine, time 0.25, 5 mg/kg b.w. 7 days): 8.23 ± 0.93 mg/kg
- Concentrations of total residues ([2]; Small Intestine, time 1, 5 mg/kg b.w. 7 days): 4.06 ± 1.32 mg/kg
- Concentrations of total residues ([2]; Small Intestine, time 3, 5 mg/kg b.w. 7 days): 0.29 ± 0.04 mg/kg
- Concentrations of total residues ([2]; Small Intestine, time 7, 5 mg/kg b.w. 7 days): 0.04 ± 0.00 mg/kg
- Elimination kinetics Ke ([2]; Spleen): 0.26
- Elimination kinetics t1/2 ([2]; Spleen): 63.1 h
